Laboratory results as given in US20210115494A1, “Improved method for measurement of microbial biomass” (Mycometer A/S, priority 2018, published 2021).

Assays:
[1] = system: NAHA activity from Ambrosia psilostachya (Rag weed pollen); assay: NAHA activity assay, rag weed pollen; assay type: biochemical
Experimental: (§1) In order to determine NAHA activity in different samples, the technology in WO 98/033934 was employed: A sample containing a dried or freeze dried organism is added to a buffer solution containing 4-Methylumbelliferyl N-acetyl-β-D-glucosaminide in a concentration of 20 μM. The reaction-time is varied depending on the ambient temperature and according to a reaction-time/temperature data sheet previously developed for fungal NAHA activity at various temperatures, and is 30 minutes at 23° C. The resulting fluorescence formed during the reaction time is monitored in a calibrated fluorometer.
(§2) Experiments were conducted where varying concentrations of AgNO3 was added to an analysis substrate. Furthermore, the experiments where performed on dried or freeze dried materials where both intact and fragmented cells are to be expected to be present.
(§3) Experiments analogous to those in example 1 were carried out, but instead of using non-specific inhibitors, the effect of different concentrations of DNJNAc on the NAHA activity in various biomass containing samples was investigated.

[2] = system: NAHA activity from Mugworth pollen; assay: NAHA activity assay, mugworth pollen; assay type: biochemical
Experimental: as §1, §2, §3

[3] = system: NAHA activity from Fusarium culmorum; assay: NAHA activity assay, Fusarium culmorum; assay type: biochemical
Experimental: as §1, §2, §3

[4] = system: NAHA activity from Cat dander; assay: NAHA activity assay, cat dander; assay type: biochemical
Experimental: as §1, §2, §3

[5] = system: NAHA activity from Acremonium spp.; assay: NAHA activity assay, Acremonium spp.; assay type: biochemical; settings: Acremonium sp.
Experimental: as §1, §2, §3

[6] = system: NAHA activity from Penicillium commune; assay: NAHA activity assay, Penicillium commune; assay type: biochemical
Experimental: as §1, §3

[7] = system: NAHA activity from Grass pollen; assay: NAHA activity assay, grass pollen; assay type: biochemical; settings: Grass pollen
Experimental: as §1, §2, §3

[8] = system: NAHA activity from Trichoderma harzianum; assay: NAHA activity assay, Trichoderma harzianum; assay type: biochemical
Experimental: as §1, §3

[9] = system: NAHA activity from Alternaria tenuissima; assay: NAHA activity assay, Alternaria tenuissima; assay type: biochemical
Experimental: as §1, §3

[10] = system: NAHA activity from Rhizopus stolonifer; assay: NAHA activity assay, Rhizopus stolonifer; assay type: biochemical
Experimental: as §1, §3

[11] = system: NAHA activity from Birch pollen; assay: NAHA activity assay, birch pollen; assay type: biochemical; settings: Birch sollen
Experimental: as §1, §2, §3

[12] = system: NAHA activity from Cladosporium sphaerospermum; assay: NAHA activity assay, Cladosporium sphaerospermum; assay type: biochemical; settings: Chladosporium sphaerosperm
Experimental: as §1, §2, §3

[13] = system: NAHA activity from Mucor hiemalis; assay: NAHA activity assay, Mucor hiemalis; assay type: biochemical
Experimental: as §1, §2, §3

[14] = system: NAHA activity from Penicillium crysogenum; assay: NAHA activity assay, Penicillium crysogenum; assay type: biochemical; settings: Penicillium chrysogenum
Experimental: as §1, §2, §3

[15] = system: NAHA activity from Aspergillus fumigatus; assay: NAHA activity assay, Aspergillus fumigatus (Table 4b, state not given); assay type: biochemical
Experimental: as §1, §3

non-fungal NAHA activity = assay: NAHA activity assay, non-fungal sources overall; assay type: biochemical
Experimental: as §1, §2, §3

[16] = system: NAHA activity from Dermatophagoides pteronyssinus (Dust mite); assay: NAHA activity assay, dust mite; assay type: biochemical; settings: Dermatophagoides pteronyssinus (House dust mite)
Experimental: as §1, §2, §3

[17] = system: NAHA activity from Graham-flour; assay: NAHA activity assay (4-methylumbelliferyl N-acetyl-β-D-glucosaminide, fluorescence), Graham-flour; assay type: biochemical; settings: Graham Hour
Experimental: as §1, §2, §3

fungal NAHA activity = assay: NAHA activity assay, fungal sources overall; assay type: biochemical, fungi
Experimental: as §1, §2, §3
The experiments were performed with whole cell/organism cultures rather than purified enzyme, which is normally used in experiments on specific inhibition. It is plausible, though, that the surprising non-specific inhibition effect observed for Ag^+ and Hg^+ could be due to the inhibitors being delayed in physically contacting the NAHA enzyme in the fungi when compared to other types of biomass.

[18] = system: NAHA activity from Stachybotrys chartarum; assay: NAHA activity assay, Stachybotrys chartarum; assay type: biochemical
Experimental: as §1, §2, §3

[19] = system: NAHA activity from Lepidoglyphus destructor (Storage mite); assay: NAHA activity assay, storage mite; assay type: biochemical; settings: Lepidoglyphus destructor (Storage mite)
Experimental: as §1, §2, §3

[20] = system: NAHA activity from Aspergillus versicolor; assay: NAHA activity assay, Aspergillus versicolor; assay type: biochemical
Experimental: as §1, §3

SMILES: CC(=O)N[C@H]1CN[C@H](CO)[C@@H](O)[C@@H]1O [DNJNAc, 2-Acetamido-1,2-dideoxynojirimycin]
- NAHA activity, 0 μM DNJNAc = 100% ([1]; DNJNAc 24.5 μM): 8%
- NAHA activity, 0 μM DNJNAc = 100% ([1]; DNJNAc 49 μM): 6%
- NAHA activity, 0 μM DNJNAc = 100% ([1]; DNJNAc 98 μM): 5%
- NAHA activity, 0 μM DNJNAc = 100% ([1]; DNJNAc 196 μM): 4%
- NAHA activity, 0 μM DNJNAc = 100% ([2]; DNJNAc 24.5 μM): 8%
- NAHA activity, 0 μM DNJNAc = 100% ([2]; DNJNAc 49 μM): 6%
- NAHA activity, 0 μM DNJNAc = 100% ([2]; DNJNAc 98 μM): 5%
- NAHA activity, 0 μM DNJNAc = 100% ([2]; DNJNAc 196 μM): 4%
- NAHA activity, 0 μM DNJNAc = 100% ([3]; DNJNAc 24.5 μM): 85%
- NAHA activity, 0 μM DNJNAc = 100% ([3]; DNJNAc 49 μM): 82%
- NAHA activity, 0 μM DNJNAc = 100% ([3]; DNJNAc 98 μM): 98%
- NAHA activity, 0 μM DNJNAc = 100% ([3]; DNJNAc 196 μM): 95%
- NAHA activity, 0 μM DNJNAc = 100% ([4]; DNJNAc 24.5 μM): 7%
- NAHA activity, 0 μM DNJNAc = 100% ([4]; DNJNAc 49 μM): 5%
- NAHA activity, 0 μM DNJNAc = 100% ([4]; DNJNAc 98 μM): 3%
- NAHA activity, 0 μM DNJNAc = 100% ([4]; DNJNAc 196 μM): 2%
- NAHA activity, 0 μM DNJNAc = 100% ([5]; DNJNAc 24.5 μM): 99%
- NAHA activity, 0 μM DNJNAc = 100% ([5]; DNJNAc 49 μM): 92%
- NAHA activity, 0 μM DNJNAc = 100% ([5]; DNJNAc 98 μM): 80%
- NAHA activity, 0 μM DNJNAc = 100% ([5]; DNJNAc 196 μM): 76%
- NAHA activity, 0 μM DNJNAc = 100% ([6]; DNJNAc 24.5 μM): 76%
- NAHA activity, 0 μM DNJNAc = 100% ([6]; DNJNAc 49 μM): 62%
- NAHA activity, 0 μM DNJNAc = 100% ([6]; DNJNAc 98 μM): 45%
- NAHA activity, 0 μM DNJNAc = 100% ([6]; DNJNAc 196 μM): 22%
- NAHA activity, 0 μM DNJNAc = 100% ([7]; DNJNAc 24.5 μM): 41%
- NAHA activity, 0 μM DNJNAc = 100% ([7]; DNJNAc 49 μM): 37%
- NAHA activity, 0 μM DNJNAc = 100% ([7]; DNJNAc 98 μM): 30%
- NAHA activity, 0 μM DNJNAc = 100% ([7]; DNJNAc 196 μM): 20%
- NAHA activity, 0 μM DNJNAc = 100% ([8]; DNJNAc 24.5 μM): 120%
- NAHA activity, 0 μM DNJNAc = 100% ([8]; DNJNAc 49 μM): 93%
- NAHA activity, 0 μM DNJNAc = 100% ([8]; DNJNAc 98 μM): 92%
- NAHA activity, 0 μM DNJNAc = 100% ([8]; DNJNAc 196 μM): 83%
- NAHA activity, 0 μM DNJNAc = 100% ([9]; DNJNAc 24.5 μM): 72%
- NAHA activity, 0 μM DNJNAc = 100% ([9]; DNJNAc 49 μM): 79%
- NAHA activity, 0 μM DNJNAc = 100% ([9]; DNJNAc 98 μM): 58%
- NAHA activity, 0 μM DNJNAc = 100% ([9]; DNJNAc 196 μM): 48%
- NAHA activity, 0 μM DNJNAc = 100% ([10]; DNJNAc 24.5 μM): 46%
- NAHA activity, 0 μM DNJNAc = 100% ([10]; DNJNAc 49 μM): 32%
- NAHA activity, 0 μM DNJNAc = 100% ([10]; DNJNAc 98 μM): 23%
- NAHA activity, 0 μM DNJNAc = 100% ([10]; DNJNAc 196 μM): 18%
- NAHA activity, 0 μM DNJNAc = 100% ([11]; DNJNAc 24.5 μM): 10%
- NAHA activity, 0 μM DNJNAc = 100% ([11]; DNJNAc 49 μM): 9%
- NAHA activity, 0 μM DNJNAc = 100% ([11]; DNJNAc 98 μM): 8%
- NAHA activity, 0 μM DNJNAc = 100% ([11]; DNJNAc 196 μM): 9%
- NAHA activity, 0 μM DNJNAc = 100% ([12]; DNJNAc 24.5 μM): 43%
- NAHA activity, 0 μM DNJNAc = 100% ([12]; DNJNAc 49 μM): 32%
- NAHA activity, 0 μM DNJNAc = 100% ([12]; DNJNAc 98 μM): 49%
- NAHA activity, 0 μM DNJNAc = 100% ([12]; DNJNAc 196 μM): 21%
- NAHA activity, 0 μM DNJNAc = 100% ([13]; DNJNAc 24.5 μM): 58%
- NAHA activity, 0 μM DNJNAc = 100% ([13]; DNJNAc 49 μM): 37%
- NAHA activity, 0 μM DNJNAc = 100% ([13]; DNJNAc 98 μM): 45%
- NAHA activity, 0 μM DNJNAc = 100% ([13]; DNJNAc 196 μM): 25%
- NAHA activity, 0 μM DNJNAc = 100% ([14]; DNJNAc 24.5 μM): 89%
- NAHA activity, 0 μM DNJNAc = 100% ([14]; DNJNAc 49 μM): 86%
- NAHA activity, 0 μM DNJNAc = 100% ([14]; DNJNAc 98 μM): 74%
- NAHA activity, 0 μM DNJNAc = 100% ([14]; DNJNAc 196 μM): 76%
- NAHA activity, 0 μM DNJNAc = 100% ([15]; DNJNAc 24.5 μM): 122%
- NAHA activity, 0 μM DNJNAc = 100% ([15]; DNJNAc 49 μM): 110%
- NAHA activity, 0 μM DNJNAc = 100% ([15]; DNJNAc 98 μM): 89%
- NAHA activity, 0 μM DNJNAc = 100% ([15]; DNJNAc 196 μM): 88%
- non fungal activity retained, average (non-fungal NAHA activity; 24.5 μM in the assay substrate): 11%
- non-fungal NAHA activity retained, average of the control (non-fungal NAHA activity; 196 μM): 5%
- NAHA activity, 0 μM DNJNAc = 100% ([16]; DNJNAc 24.5 μM): 5%
- NAHA activity, 0 μM DNJNAc = 100% ([16]; DNJNAc 49 μM): 2%
- NAHA activity, 0 μM DNJNAc = 100% ([16]; DNJNAc 98 μM): 1%
- NAHA activity, 0 μM DNJNAc = 100% ([16]; DNJNAc 196 μM): 1%
- NAHA activity, 0 μM DNJNAc = 100% ([17]; DNJNAc 24.5 μM): 14%
- NAHA activity, 0 μM DNJNAc = 100% ([17]; DNJNAc 49 μM): 9%
- NAHA activity, 0 μM DNJNAc = 100% ([17]; DNJNAc 98 μM): 6%
- NAHA activity, 0 μM DNJNAc = 100% ([17]; DNJNAc 196 μM): 6%
- fungal NAHA activity retained, average (fungal NAHA activity; 24.5 μM in the assay substrate): 83%
- fungal NAHA activity retained, average (fungal NAHA activity; 196 μM): 60%
- NAHA activity, 0 μM DNJNAc = 100% ([18]; DNJNAc 24.5 μM): 90%
- NAHA activity, 0 μM DNJNAc = 100% ([18]; DNJNAc 98 μM): 97%
- NAHA activity, 0 μM DNJNAc = 100% ([18]; DNJNAc 196 μM): 85%
- NAHA activity, 0 μM DNJNAc = 100% ([19]; DNJNAc 24.5 μM): 3%
- NAHA activity, 0 μM DNJNAc = 100% ([19]; DNJNAc 49 μM): 2%
- NAHA activity, 0 μM DNJNAc = 100% ([19]; DNJNAc 98 μM): 1%
- NAHA activity, 0 μM DNJNAc = 100% ([19]; DNJNAc 196 μM): 0%
- NAHA activity, 0 μM DNJNAc = 100% ([20]; DNJNAc 24.5 μM): 92%
- NAHA activity, 0 μM DNJNAc = 100% ([20]; DNJNAc 49 μM): 79%
- NAHA activity, 0 μM DNJNAc = 100% ([20]; DNJNAc 98 μM): 71%
- NAHA activity, 0 μM DNJNAc = 100% ([20]; DNJNAc 196 μM): 63%
